According to US7666871B2, “Oxazole derivatives as histamine H3 receptor agents, preparation and therapeutic uses” (Eli Lilly and Company, priority 2004, dated 2010):

Molecular target: T1, human H3R (Homo sapiens, UniProt Q9Y5N1)
T1 construct: expressed in transfected cells; pcDNA3.1(+) vector, G418 selection), membranes
Test: Histamine H3 Receptor Binding Assay (competitive inhibition SPA, membranes of transfected HEK293 cells)
Conditions: Ki's at the human H3R
Description: The compounds of the present invention can readily be evaluated by using a competitive inhibition Scintillation Proximity Assay (SPA) based on a H3R binding assay using R-[3H] α methylhistamine as ligand. Stable cell lines, including but not limited to HEK can be transfected with cDNA coding for H3R to prepare membranes used for the binding assay. The technique is illustrated below (Preparation of Histamine Receptor Subtype Membranes) for the histamine receptor subtypes.
cDNA for the human histamine 1 receptor (H1R) was cloned into a mammalian expression vector containing the CMV promoter (pcDNA3.1(+), Invitogen) and transfected into HEK293 cells using the FuGENE Tranfection Reagent (Roche Diagnostics Corporation). Transfected cells were selected using G418 (500 μ/mL). Colonies that survived selection were grown and tested for histamine binding to cells grown in 96-well dishes using a scintillation proximity assay (SPA) based radioligand binding assay. Briefly, cells, representing individual selected clones, were grown as confluent monolayers in 96-well dishes (Costar Clear Bottom Plates, #3632) by seeding wells with 25,000 cells and growing for 48 hours (37° C., 5% CO2). […] Plates were counted in a Wallac Trilux 1450 Microbeta scintillation counter. […]
cDNA for the human histamine 3 receptor was cloned and expressed as described in (A. Preparation H1R membranes), above. […]

T1 sequence (Q9Y5N1 whole entry): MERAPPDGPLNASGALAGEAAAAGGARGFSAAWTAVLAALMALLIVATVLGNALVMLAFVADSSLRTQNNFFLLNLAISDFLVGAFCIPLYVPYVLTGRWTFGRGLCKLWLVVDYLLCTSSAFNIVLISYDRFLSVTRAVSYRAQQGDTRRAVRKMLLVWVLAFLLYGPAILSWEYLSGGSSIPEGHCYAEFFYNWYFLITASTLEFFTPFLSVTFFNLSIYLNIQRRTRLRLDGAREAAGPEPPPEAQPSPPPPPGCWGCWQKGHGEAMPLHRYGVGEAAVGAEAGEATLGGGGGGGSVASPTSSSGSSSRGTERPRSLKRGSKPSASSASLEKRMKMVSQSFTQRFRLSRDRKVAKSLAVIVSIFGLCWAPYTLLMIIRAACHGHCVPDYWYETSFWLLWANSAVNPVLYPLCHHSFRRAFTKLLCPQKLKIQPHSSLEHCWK

Row | Ki | Structure (SMILES)
1 | 14.3 nM | COC[C@@H]1CCCN1CCc1nc(-c2ccc(-c3cccnc3)cc2)oc1C
2 | 1.6 nM | CS(=O)(=O)Nc1ccc(-c2ccc(-c3nc(CN4CCCC4)co3)cc2)cc1
